Test results published in PubChem BioAssay AID2060489 (Molecular Pharmacology Branch, DTP, NCI, 2025).

Tested on: 922993-354-T-J3-PDC complex spheroids, viability
Assay: Anticancer human tumor 922993-354-T-J3-PDC patient-derived endometrial carcinoma cell line growth inhibition [GQUAD]
Settings: for IC50: curve of first compound; for viability, T/C: stronger effect = lower value
In short: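 Viability of tumor cells grown as complex spheroids with endothelial and stromal cells, exposed to drug combinations. Top concentration at or near clinical Cmax (else 10 microM), diluted in half-log increments.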

[1] = second compound 0.0316 µM, first compound 0.0316 µM
[2] = second compound 0.0316 µM, first compound 0.1 µM
[3] = second compound 0.0316 µM, first compound 0.316 µM
[4] = second compound 0.0316 µM, first compound 1 µM
[5] = second compound 0.0316 µM, first compound 3.16 µM
[6] = second compound 0.0316 µM, first compound 10 µM
[7] = second compound 0.1 µM, first compound 0.0316 µM
[8] = second compound 0.1 µM, first compound 0.1 µM
[9] = second compound 0.1 µM, first compound 0.316 µM
[10] = second compound 0.1 µM, first compound 1 µM
[11] = second compound 0.1 µM, first compound 3.16 µM
[12] = second compound 0.1 µM, first compound 10 µM
[13] = second compound 0.316 µM, first compound 0.0316 µM
[14] = second compound 0.316 µM, first compound 0.1 µM
[15] = second compound 0.316 µM, first compound 0.316 µM
[16] = second compound 0.316 µM, first compound 1 µM
[17] = second compound 0.316 µM, first compound 3.16 µM
[18] = second compound 0.316 µM, first compound 10 µM
[19] = second compound 1 µM, first compound 0.0316 µM
[20] = second compound 1 µM, first compound 0.1 µM
[21] = second compound 1 µM, first compound 0.316 µM
[22] = second compound 1 µM, first compound 1 µM
[23] = second compound 1 µM, first compound 3.16 µM
[24] = second compound 1 µM, first compound 10 µM
[25] = second compound 3.16 µM, first compound 0.0316 µM
[26] = second compound 3.16 µM, first compound 0.1 µM
[27] = second compound 3.16 µM, first compound 0.316 µM
[28] = second compound 3.16 µM, first compound 1 µM
[29] = second compound 3.16 µM, first compound 3.16 µM
[30] = second compound 3.16 µM, first compound 10 µM
[31] = second compound 10 µM, first compound 0.0316 µM
[32] = second compound 10 µM, first compound 0.1 µM
[33] = second compound 10 µM, first compound 0.316 µM
[34] = second compound 10 µM, first compound 1 µM
[35] = second compound 10 µM, first compound 3.16 µM
[36] = second compound 10 µM, first compound 10 µM
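Further: spheroids exposed to compounds for seven days.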
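Wherever viability, T/C is given: 100% = DMSO vehicle control viability.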

CC1COCCN1c1cc(-c2ccnn2C)c2ccnc(-c3ccn[nH]3)c2n1 (stereo unspecified) + Cc1[nH]c2ccc(F)cc2c1-c1nc2c3cccnc3c3ncccc3c2[nH]1
IC50 (second compound 0.0316 µM): 188 nM
IC50 (second compound 0.1 µM): 234 nM
IC50 (second compound 0.316 µM): 280 nM
IC50 (second compound 1 µM): 243 nM
IC50 (second compound 3.16 µM): 188 nM
IC50 (second compound 10 µM): 216 nM
viability, T/C [1]: 84%
viability, T/C [2]: 59.3%
viability, T/C [3]: 44.3%
viability, T/C [4]: 23.6%
viability, T/C [5]: 21%
viability, T/C [6]: 16.5%
viability, T/C [7]: 82%
viability, T/C [8]: 66%
viability, T/C [9]: 45.9%
viability, T/C [10]: 25.4%
viability, T/C [11]: 20.9%
viability, T/C [12]: 21.8%
viability, T/C [13]: 108%
viability, T/C [14]: 76.3%
viability, T/C [15]: 50.5%
viability, T/C [16]: 22.7%
viability, T/C [17]: 17.5%
viability, T/C [18]: 16.5%
viability, T/C [19]: 93.2%
viability, T/C [20]: 67%
viability, T/C [21]: 49%
viability, T/C [22]: 21.5%
viability, T/C [23]: 20.1%
viability, T/C [24]: 15.1%
viability, T/C [25]: 98.2%
viability, T/C [26]: 65.6%
viability, T/C [27]: 37.6%
viability, T/C [28]: 25%
viability, T/C [29]: 27.2%
viability, T/C [30]: 21.4%
viability, T/C [31]: 104%
viability, T/C [32]: 70.7%
viability, T/C [33]: 39.4%
viability, T/C [34]: 24.8%
viability, T/C [35]: 26.2%
viability, T/C [36]: 16.6%

COc1ccc([C@@H](O)c2cc(-c3ncnc4cc(N5CCOCC5)ccc34)c(F)cc2Cl)nn1 + Cc1[nH]c2ccc(F)cc2c1-c1nc2c3cccnc3c3ncccc3c2[nH]1
IC50 (second compound 0.0316 µM): 9140 nM
IC50 (second compound 0.1 µM): > 10000 nM
IC50 (second compound 0.316 µM): 8510 nM
IC50 (second compound 1 µM): > 10000 nM
IC50 (second compound 3.16 µM): > 10000 nM
IC50 (second compound 10 µM): > 10000 nM
viability, T/C [1]: 107%
viability, T/C [2]: 112%
viability, T/C [3]: 92.9%
viability, T/C [4]: 90%
viability, T/C [5]: 95.8%
viability, T/C [6]: 45.7%
viability, T/C [7]: 123%
viability, T/C [8]: 115%
viability, T/C [9]: 114%
viability, T/C [10]: 94.9%
viability, T/C [11]: 115%
viability, T/C [12]: 58.1%
viability, T/C [13]: 106%
viability, T/C [14]: 116%
viability, T/C [15]: 94%
viability, T/C [16]: 100%
viability, T/C [17]: 86.8%
viability, T/C [18]: 43.4%
viability, T/C [19]: 114%
viability, T/C [20]: 108%
viability, T/C [21]: 72.2%
viability, T/C [22]: 88.6%
viability, T/C [23]: 97.1%
viability, T/C [24]: 68.2%
viability, T/C [25]: 101%
viability, T/C [26]: 101%
viability, T/C [27]: 93.9%
viability, T/C [28]: 103%
viability, T/C [29]: 88.9%
viability, T/C [30]: 66.1%
viability, T/C [31]: 84.6%
viability, T/C [32]: 88.6%
viability, T/C [33]: 109%
viability, T/C [34]: 90.8%
viability, T/C [35]: 108%
viability, T/C [36]: 61.6%

Cn1ncnc1[C@H]1c2n[nH]c(=O)c3cc(F)cc(c23)N[C@@H]1c1ccc(F)cc1 + Cc1cnc(CNC(=O)c2c(=O)c3ccc(N4CCCN(C)CC4)nc3n3c2sc2ccccc23)cn1
IC50 (second compound 0.0316 µM): > 316 nM
IC50 (second compound 0.1 µM): 71.7 nM
IC50 (second compound 0.316 µM): 7.19 nM
IC50 (second compound 1 µM): < 0.999 nM
IC50 (second compound 3.16 µM): < 0.999 nM
IC50 (second compound 10 µM): < 0.999 nM
viability, T/C (second compound 0.0316 µM, first compound 0.000999 µM): 93.2%
viability, T/C (second compound 0.0316 µM, first compound 0.00316 µM): 78.7%
viability, T/C (second compound 0.0316 µM, first compound 0.00999 µM): 76.6%
viability, T/C [1]: 72.8%
viability, T/C (second compound 0.0316 µM, first compound 0.0999 µM): 72.3%
viability, T/C [3]: 59.9%
viability, T/C (second compound 0.1 µM, first compound 0.000999 µM): 65.4%
viability, T/C (second compound 0.1 µM, first compound 0.00316 µM): 69.2%
viability, T/C (second compound 0.1 µM, first compound 0.00999 µM): 58.3%
viability, T/C [7]: 50.7%
viability, T/C (second compound 0.1 µM, first compound 0.0999 µM): 52.2%
viability, T/C [9]: 39.3%
viability, T/C (second compound 0.316 µM, first compound 0.000999 µM): 43.5%
viability, T/C (second compound 0.316 µM, first compound 0.00316 µM): 54.2%
viability, T/C (second compound 0.316 µM, first compound 0.00999 µM): 55.6%
viability, T/C [13]: 44.2%
viability, T/C (second compound 0.316 µM, first compound 0.0999 µM): 41.6%
viability, T/C [15]: 32%
viability, T/C (second compound 1 µM, first compound 0.000999 µM): 49.2%
viability, T/C (second compound 1 µM, first compound 0.00316 µM): 53.4%
viability, T/C (second compound 1 µM, first compound 0.00999 µM): 45.9%
viability, T/C [19]: 49.9%
viability, T/C (second compound 1 µM, first compound 0.0999 µM): 50.3%
viability, T/C [21]: 49.6%
viability, T/C (second compound 3.16 µM, first compound 0.000999 µM): 41.9%
viability, T/C (second compound 3.16 µM, first compound 0.00316 µM): 50.1%
viability, T/C (second compound 3.16 µM, first compound 0.00999 µM): 44%
viability, T/C [25]: 49.5%
viability, T/C (second compound 3.16 µM, first compound 0.0999 µM): 49.4%
viability, T/C [27]: 37.2%
viability, T/C (second compound 10 µM, first compound 0.000999 µM): 49%
viability, T/C (second compound 10 µM, first compound 0.00316 µM): 43.6%
viability, T/C (second compound 10 µM, first compound 0.00999 µM): 48.4%
viability, T/C [31]: 49%
viability, T/C (second compound 10 µM, first compound 0.0999 µM): 49.3%
viability, T/C [33]: 41.6%
